Laboratory results as given in ChEMBL document CHEMBL3400143, “Discovery and hit-to-lead optimization of 2,6-diaminopyrimidine inhibitors of interleukin-1 receptor-associated kinase 4” (Bioorg Med Chem Lett, 2015).
Activity calls are given as the source filed them. The rule behind the calls is not given here.

How the values were obtained:
[1] = biological target: T1, Interleukin-1 receptor-associated kinase 4 (Homo sapiens, UniProt Q9NWZ3); experiment: Inhibition of N-terminal GST tagged human recombinant full-length IRAK4 expressed in Sf9 insect cells assessed as reduction in substrate phosphorylation using RP7030 peptide substrate and ATP incubated for 30 mins fluorescence polarization assay
T1 sequence (Q9NWZ3 whole entry): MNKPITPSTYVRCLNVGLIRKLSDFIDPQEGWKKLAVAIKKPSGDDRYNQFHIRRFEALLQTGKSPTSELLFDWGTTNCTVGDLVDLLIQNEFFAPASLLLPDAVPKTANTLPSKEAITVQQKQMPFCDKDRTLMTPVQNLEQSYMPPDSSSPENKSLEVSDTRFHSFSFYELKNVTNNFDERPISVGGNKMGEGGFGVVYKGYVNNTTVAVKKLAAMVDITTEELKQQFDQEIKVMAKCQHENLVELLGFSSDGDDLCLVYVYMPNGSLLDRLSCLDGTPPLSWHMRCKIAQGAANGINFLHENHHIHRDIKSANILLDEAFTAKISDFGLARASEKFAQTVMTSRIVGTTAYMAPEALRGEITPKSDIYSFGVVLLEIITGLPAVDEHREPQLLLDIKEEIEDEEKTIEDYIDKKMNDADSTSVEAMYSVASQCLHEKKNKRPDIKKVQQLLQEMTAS

[2] = biological target: Dual specificity protein kinase CLK4 (Homo sapiens) (UniProt Q9HAZ1); experiment: Inhibition of CLK4 (unknown origin)
Dual specificity protein kinase CLK4 (Homo sapiens), sequence (Q9HAZ1 whole entry, looked up): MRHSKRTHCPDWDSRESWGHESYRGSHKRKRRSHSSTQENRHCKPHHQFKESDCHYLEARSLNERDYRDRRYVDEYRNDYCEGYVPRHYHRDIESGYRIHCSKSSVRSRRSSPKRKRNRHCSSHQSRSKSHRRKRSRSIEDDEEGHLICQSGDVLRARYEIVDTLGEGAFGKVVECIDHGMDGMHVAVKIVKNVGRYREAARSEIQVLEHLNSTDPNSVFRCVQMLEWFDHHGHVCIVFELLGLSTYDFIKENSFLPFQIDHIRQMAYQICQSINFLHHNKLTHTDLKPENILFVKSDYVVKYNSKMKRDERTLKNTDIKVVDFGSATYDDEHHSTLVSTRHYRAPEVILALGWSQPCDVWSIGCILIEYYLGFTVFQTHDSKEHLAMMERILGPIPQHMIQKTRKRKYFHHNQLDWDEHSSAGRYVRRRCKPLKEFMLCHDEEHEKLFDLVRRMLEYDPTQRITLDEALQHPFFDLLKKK

[3] = biological target: Receptor-type tyrosine-protein kinase FLT3 (Homo sapiens) (UniProt P36888); experiment: Inhibition of FLT3 (unknown origin)
Receptor-type tyrosine-protein kinase FLT3 (Homo sapiens), sequence (P36888 whole entry): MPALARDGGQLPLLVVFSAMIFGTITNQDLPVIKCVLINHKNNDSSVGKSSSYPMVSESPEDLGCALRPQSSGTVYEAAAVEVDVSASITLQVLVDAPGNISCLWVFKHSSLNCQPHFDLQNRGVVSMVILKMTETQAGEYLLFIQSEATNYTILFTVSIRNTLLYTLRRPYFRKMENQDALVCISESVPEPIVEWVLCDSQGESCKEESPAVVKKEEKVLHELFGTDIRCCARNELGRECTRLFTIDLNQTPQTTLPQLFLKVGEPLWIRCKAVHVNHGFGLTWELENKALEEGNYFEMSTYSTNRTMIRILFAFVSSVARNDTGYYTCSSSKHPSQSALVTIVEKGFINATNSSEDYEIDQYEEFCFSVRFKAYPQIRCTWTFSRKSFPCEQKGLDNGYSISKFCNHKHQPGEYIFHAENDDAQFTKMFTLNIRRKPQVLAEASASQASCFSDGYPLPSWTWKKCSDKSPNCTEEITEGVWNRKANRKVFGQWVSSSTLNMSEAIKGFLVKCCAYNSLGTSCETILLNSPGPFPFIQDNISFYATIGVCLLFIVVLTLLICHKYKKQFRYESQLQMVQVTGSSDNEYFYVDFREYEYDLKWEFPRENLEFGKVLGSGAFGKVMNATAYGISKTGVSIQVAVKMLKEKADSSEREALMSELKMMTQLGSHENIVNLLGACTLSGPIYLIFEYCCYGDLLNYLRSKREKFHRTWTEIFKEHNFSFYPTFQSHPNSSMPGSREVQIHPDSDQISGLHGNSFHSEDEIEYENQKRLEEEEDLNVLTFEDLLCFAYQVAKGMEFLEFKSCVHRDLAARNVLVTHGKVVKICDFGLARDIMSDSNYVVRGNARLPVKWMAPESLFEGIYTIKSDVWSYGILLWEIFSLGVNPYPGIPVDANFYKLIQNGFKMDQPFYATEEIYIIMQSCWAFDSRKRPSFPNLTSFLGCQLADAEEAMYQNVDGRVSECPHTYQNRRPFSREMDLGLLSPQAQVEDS

[4] = biological target: Mitogen-activated protein kinase kinase kinase kinase 4 (Homo sapiens) (UniProt O95819); experiment: Inhibition of MAP4K4 (unknown origin)
Mitogen-activated protein kinase kinase kinase kinase 4 (Homo sapiens), sequence (O95819 2-1239 limits assumed): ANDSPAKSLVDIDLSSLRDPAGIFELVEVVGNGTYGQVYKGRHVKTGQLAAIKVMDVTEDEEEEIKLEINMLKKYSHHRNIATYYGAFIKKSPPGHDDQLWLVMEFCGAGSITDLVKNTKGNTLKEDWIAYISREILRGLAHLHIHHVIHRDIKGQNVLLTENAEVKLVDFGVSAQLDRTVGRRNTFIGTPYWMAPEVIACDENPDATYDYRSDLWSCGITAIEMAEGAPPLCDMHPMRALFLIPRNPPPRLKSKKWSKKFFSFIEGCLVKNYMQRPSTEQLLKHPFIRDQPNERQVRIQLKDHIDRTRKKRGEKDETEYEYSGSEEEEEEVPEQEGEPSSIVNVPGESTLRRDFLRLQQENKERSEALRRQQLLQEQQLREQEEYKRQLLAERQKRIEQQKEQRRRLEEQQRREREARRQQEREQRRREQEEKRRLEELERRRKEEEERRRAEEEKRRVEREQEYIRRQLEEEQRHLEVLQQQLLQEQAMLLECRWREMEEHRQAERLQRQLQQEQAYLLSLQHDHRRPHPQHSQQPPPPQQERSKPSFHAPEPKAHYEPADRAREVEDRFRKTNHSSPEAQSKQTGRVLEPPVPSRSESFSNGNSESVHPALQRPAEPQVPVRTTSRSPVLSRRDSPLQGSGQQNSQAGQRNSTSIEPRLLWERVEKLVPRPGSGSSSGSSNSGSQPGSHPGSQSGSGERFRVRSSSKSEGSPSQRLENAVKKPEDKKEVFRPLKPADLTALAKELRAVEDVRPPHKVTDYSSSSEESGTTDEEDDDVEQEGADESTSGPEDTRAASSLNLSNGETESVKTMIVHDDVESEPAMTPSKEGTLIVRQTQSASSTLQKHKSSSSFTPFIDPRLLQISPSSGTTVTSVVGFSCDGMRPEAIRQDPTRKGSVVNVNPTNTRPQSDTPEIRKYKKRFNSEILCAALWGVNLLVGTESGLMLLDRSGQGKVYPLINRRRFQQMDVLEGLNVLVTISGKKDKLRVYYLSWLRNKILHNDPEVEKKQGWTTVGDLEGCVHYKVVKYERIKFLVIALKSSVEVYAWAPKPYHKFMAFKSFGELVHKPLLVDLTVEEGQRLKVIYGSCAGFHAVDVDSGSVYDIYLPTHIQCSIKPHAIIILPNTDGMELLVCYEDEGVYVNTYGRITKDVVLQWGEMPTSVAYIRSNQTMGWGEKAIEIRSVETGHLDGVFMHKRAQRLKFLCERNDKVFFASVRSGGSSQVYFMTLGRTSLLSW

[5] = biological target: High affinity nerve growth factor receptor (Homo sapiens) (UniProt P04629); experiment: Inhibition of TRKA (unknown origin)
High affinity nerve growth factor receptor (Homo sapiens), sequence (P04629 33-796 limits assumed): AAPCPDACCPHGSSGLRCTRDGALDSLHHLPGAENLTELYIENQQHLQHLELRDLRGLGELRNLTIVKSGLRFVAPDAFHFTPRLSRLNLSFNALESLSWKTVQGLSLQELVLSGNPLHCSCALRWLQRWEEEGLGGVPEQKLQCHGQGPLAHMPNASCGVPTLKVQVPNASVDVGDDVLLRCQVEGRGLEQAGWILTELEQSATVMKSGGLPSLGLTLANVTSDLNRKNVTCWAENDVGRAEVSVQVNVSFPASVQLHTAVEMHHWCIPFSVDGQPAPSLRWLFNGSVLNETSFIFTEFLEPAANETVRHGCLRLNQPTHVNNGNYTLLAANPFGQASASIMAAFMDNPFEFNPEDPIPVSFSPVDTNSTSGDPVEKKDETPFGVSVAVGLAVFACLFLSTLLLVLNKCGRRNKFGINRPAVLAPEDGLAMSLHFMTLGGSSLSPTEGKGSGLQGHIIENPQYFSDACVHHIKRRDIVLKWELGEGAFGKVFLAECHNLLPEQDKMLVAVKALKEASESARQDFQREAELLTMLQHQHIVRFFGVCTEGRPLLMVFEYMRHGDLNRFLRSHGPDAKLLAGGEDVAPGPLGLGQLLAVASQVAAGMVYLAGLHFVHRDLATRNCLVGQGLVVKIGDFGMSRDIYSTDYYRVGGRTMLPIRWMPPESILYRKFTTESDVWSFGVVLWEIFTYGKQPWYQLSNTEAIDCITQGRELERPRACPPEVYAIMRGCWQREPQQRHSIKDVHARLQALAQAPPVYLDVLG

[6] = biological target: BDNF/NT-3 growth factors receptor (Homo sapiens) (UniProt Q16620); experiment: Inhibition of TRKB (unknown origin)
BDNF/NT-3 growth factors receptor (Homo sapiens), sequence (Q16620 32-822 limits assumed): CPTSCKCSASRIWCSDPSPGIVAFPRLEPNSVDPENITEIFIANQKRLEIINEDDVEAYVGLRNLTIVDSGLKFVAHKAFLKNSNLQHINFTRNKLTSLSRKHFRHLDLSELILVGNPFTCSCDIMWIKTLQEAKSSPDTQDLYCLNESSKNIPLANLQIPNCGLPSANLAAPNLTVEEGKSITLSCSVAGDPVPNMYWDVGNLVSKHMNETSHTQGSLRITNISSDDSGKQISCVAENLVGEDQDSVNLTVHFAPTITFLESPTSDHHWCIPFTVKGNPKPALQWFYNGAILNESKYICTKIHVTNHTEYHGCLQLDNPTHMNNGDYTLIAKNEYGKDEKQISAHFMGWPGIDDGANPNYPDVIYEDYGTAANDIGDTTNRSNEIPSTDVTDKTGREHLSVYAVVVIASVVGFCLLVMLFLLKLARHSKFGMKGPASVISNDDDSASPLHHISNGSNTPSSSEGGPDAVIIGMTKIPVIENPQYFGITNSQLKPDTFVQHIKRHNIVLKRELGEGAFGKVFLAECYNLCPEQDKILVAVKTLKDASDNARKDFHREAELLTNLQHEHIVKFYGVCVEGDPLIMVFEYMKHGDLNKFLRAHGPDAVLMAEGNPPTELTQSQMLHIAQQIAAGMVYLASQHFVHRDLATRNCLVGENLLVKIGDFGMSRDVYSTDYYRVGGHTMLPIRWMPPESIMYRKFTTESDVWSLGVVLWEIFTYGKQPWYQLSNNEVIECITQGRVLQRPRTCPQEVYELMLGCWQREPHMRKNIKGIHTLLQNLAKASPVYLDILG

[7] = biological target: NT-3 growth factor receptor (Homo sapiens) (UniProt Q16288); experiment: Inhibition of TRKC (unknown origin)
NT-3 growth factor receptor (Homo sapiens), sequence (Q16288 32-839 limits assumed): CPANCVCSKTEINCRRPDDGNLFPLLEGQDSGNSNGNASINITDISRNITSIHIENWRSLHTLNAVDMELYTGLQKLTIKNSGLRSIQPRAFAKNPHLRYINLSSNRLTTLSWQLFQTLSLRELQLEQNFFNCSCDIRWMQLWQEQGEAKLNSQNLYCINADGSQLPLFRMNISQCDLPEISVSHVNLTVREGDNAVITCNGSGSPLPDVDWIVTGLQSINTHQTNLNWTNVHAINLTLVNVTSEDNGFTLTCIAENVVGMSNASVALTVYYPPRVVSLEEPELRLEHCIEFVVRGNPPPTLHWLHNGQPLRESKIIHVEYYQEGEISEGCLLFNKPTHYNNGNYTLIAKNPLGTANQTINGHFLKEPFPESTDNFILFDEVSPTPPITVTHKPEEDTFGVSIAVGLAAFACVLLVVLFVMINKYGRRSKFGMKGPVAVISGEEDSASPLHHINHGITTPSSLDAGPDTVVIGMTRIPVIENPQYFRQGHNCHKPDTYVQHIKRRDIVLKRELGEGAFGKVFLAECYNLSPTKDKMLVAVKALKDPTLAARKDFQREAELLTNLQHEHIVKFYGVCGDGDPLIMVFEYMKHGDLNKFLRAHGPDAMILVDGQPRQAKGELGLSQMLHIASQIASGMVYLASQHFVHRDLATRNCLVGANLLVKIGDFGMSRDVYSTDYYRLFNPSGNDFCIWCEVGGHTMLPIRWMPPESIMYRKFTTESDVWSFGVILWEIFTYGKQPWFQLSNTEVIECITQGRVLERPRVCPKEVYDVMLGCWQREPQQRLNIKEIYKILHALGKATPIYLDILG

Row | SMILES | IC50 [1] [nM] | inhibition [2] | inhibition [3] | inhibition [4] | inhibition [5] | inhibition [6] | inhibition [7]
1 | Nc1nc(N)c(-c2nc3ccccc3s2)c(N[C@@H]2C[C@H](CO)[C@@H](O)[C@H]2O)n1 | 5190 | Active | Active | Active | Active | Active | Active
2 | Nc1nc(N[C@@H]2C[C@H](CO)[C@@H](O)[C@H]2O)c(-c2nc3ccccc3s2)c(C(F)(F)F)n1 | > 20000 | Active | Active | Active | Active | Active | Active
3 | OC[C@H]1C[C@@H](Nc2nc(Nc3cncnc3)ncc2-c2nc3ccccc3s2)[C@H](O)[C@@H]1O | 6000 | Active | Active | Active | Active | Active | Active
4 | Nc1ncc(-c2ncc(-c3ccccc3)s2)c(N[C@@H]2C[C@H](CO)[C@@H](O)[C@H]2O)n1 | > 20000 | Active | Active | Active | Active | Active | Active
5 | Cc1nc(NCC2CC2)nc(N[C@@H]2C[C@H](CO)[C@@H](O)[C@H]2O)c1-c1nc2ccccc2s1 | > 20000 | Active | Active | Active | Active | Active | Active
6 | CCc1nc(N)nc(N[C@@H]2C[C@H](CO)[C@@H](O)[C@H]2O)c1-c1nc2ccccc2s1 | 6850 | Active | Active | Active | Active | Active | Active
7 | Nc1ncc(-c2nc(-c3ccccc3)cs2)c(N[C@@H]2C[C@H](CO)[C@@H](O)[C@H]2O)n1 | – | Active | Active | Active | Active | Active | Active
8 | Cn1c(-c2cnc(N)nc2N[C@@H]2C[C@H](CO)[C@@H](O)[C@H]2O)nc2ccccc21 | > 20000 | Active | Active | Active | Active | Active | Active
9 | CCCNc1nc(C)c(-c2nc3ccccc3s2)c(N[C@@H]2CC[C@@H](O)[C@H]2O)n1 (racemic) | > 20000 | Active | Active | Active | Active | Active | Active
10 | N#Cc1nc(N)nc(N[C@@H]2C[C@H](CO)[C@@H](O)[C@H]2O)c1-c1nc2ccccc2s1 | > 20000 | Active | Active | Active | Active | Active | Active
11 | Nc1ncc(-c2cnc3ccccn23)c(N[C@@H]2C[C@H](CO)[C@@H](O)[C@H]2O)n1 | 1140 | Active | Active | Active | Active | Active | Active
12 | COc1nc(N)nc(N[C@@H]2C[C@H](CO)[C@@H](O)[C@H]2O)c1-c1nc2ccccc2s1 | > 20000 | Active | Active | Active | Active | Active | Active
13 | OC[C@H]1C[C@@H](Nc2nc(NC3CCOCC3)ncc2-c2nc3ccccc3s2)[C@H](O)[C@@H]1O | 1080 | Active | Active | Active | Active | Active | Active
14 | OC[C@H]1C[C@@H](Nc2nc(Nc3ccccc3)ncc2-c2nc3ccccc3s2)[C@H](O)[C@@H]1O | 42000 | Active | Active | Active | Active | Active | Active
15 | Nc1ncc(-c2nc3ccncc3s2)c(N[C@@H]2C[C@H](CO)[C@@H](O)[C@H]2O)n1 | – | Active | Active | Active | Active | Active | Active
16 | Nc1ncc(-c2nc3cnccc3s2)c(N[C@@H]2C[C@H](CO)[C@@H](O)[C@H]2O)n1 | – | Active | Active | Active | Active | Active | Active
17 | CCCNc1nc(C)c(-c2nc3ccccc3s2)c(N2CCOCC2)n1 | > 20000 | Active | Active | Active | Active | Active | Active
18 | Nc1ncc(-c2ccc3ccccc3n2)c(N[C@@H]2C[C@H](CO)[C@@H](O)[C@H]2O)n1 | – | Active | Active | Active | Active | Active | Active
19 | Nc1ncc(-c2nc3ccccc3o2)c(N[C@@H]2C[C@H](CO)[C@@H](O)[C@H]2O)n1 | – | Active | Active | Active | Active | Active | Active

Further compounds by falling IC50 [1], results first:

Row | IC50 [1] [nM] | inhibition [2] | inhibition [3] | inhibition [4] | inhibition [5] | inhibition [6] | inhibition [7] | SMILES
20 | 1060 | Active | Active | Active | Active | Active | Active | Cc1nc(N)nc(N[C@@H]2C[C@H](CO)[C@@H](O)[C@H]2O)c1-c1nc2ccccc2s1
21 | 1000 | Active | Active | Active | Active | Active | Active | Cc1cc(Nc2ncc(-c3nc4ccccc4s3)c(N[C@@H]3C[C@H](CO)[C@@H](O)[C@H]3O)n2)cc(C)n1
22 | 830 | Active | Active | Active | Active | Active | Active | Nc1ncc(-c2ccccn2)c(N[C@@H]2C[C@H](CO)[C@@H](O)[C@H]2O)n1
23 | 530 | Active | Active | Active | Active | Active | Active | Nc1ncc(-c2nc3cccnc3s2)c(N[C@@H]2C[C@H](CO)[C@@H](O)[C@H]2O)n1
24 | 333 | Active | Active | Active | Active | Active | Active | OC[C@H]1C[C@@H](Nc2nc(NCC3CC3)ncc2-c2nc3ccccc3s2)[C@H](O)[C@@H]1O
25 | 300 | Active | Active | Active | Active | Active | Active | Cc1cc(Nc2ncc(-c3nc4ccncc4s3)c(N[C@@H]3C[C@H](CO)[C@@H](O)[C@H]3O)n2)cc(C)n1
26 | 240 | Active | Active | Active | Active | Active | Active | CCCNc1nc(C)c(-c2nc3ccccc3s2)c(N[C@@H]2C[C@H](CO)[C@@H](O)[C@H]2O)n1
27 | 240 | Active | Active | Active | Active | Active | Active | Nc1ncc(-c2nc3ccccc3s2)c(N[C@@H]2C[C@H](CO)[C@@H](O)[C@H]2O)n1
28 | 228 | Active | Active | Active | Active | Active | Active | COCCCNc1ncc(-c2nc3ccccc3s2)c(N[C@@H]2C[C@H](CO)[C@@H](O)[C@H]2O)n1
29 | 170 | Active | Active | Active | Active | Active | Active | Nc1nc(Cl)c(-c2nc3ccccc3s2)c(N[C@@H]2C[C@H](CO)[C@@H](O)[C@H]2O)n1
